Measured values taken from ChEMBL document CHEMBL4130371, “Norepinephrine alkaloids as antiplasmodial agents: Synthesis of syncarpamide and insight into the structure-activity relationships of its analogues as antiplasmodial agents” (Eur J Med Chem, 2017).

Columns and labels:
Plasmodium falciparum [1] = test: Antiplasmodial activity against chloroquine-sensitive Plasmodium falciparum 3D7 measured after 72 hrs by SYBR green 1 dye based fluorescence assay; format: functional, organism-based; settings: 3D7, 72 h
Plasmodium falciparum [2] = test: Antiplasmodial activity against chloroquine-resistant Plasmodium falciparum K1 measured after 72 hrs by SYBR green 1 dye based fluorescence assay; format: functional, organism-based; settings: K1, 72 h
[3] = Cytotoxicity against African green monkey Vero cells assessed as reduction in cell viability after 72 hrs by MTT assay; format: cell-based; settings: chlorocebus sabaeus
[4] = Selectivity index, ratio of CC50 for African green monkey Vero cells to IC50 for chloroquine-sensitive Plasmodium falciparum 3D7; format: toxicity; settings: read-out: Ratio CC50/IC50

Row | SMILES | IC50 (Plasmodium falciparum [1]) | IC50 (Plasmodium falciparum [2]) | CC50 at 72 h [3] | selectivity ratio [4]
1 | COc1ccc([C@H](O)CNC(=O)/C=C/c2ccccc2)cc1 | 6.82 µM | 7.26 µM |  | 
2 | COc1cc([C@@H]2c3cc4c(cc3[C@H](O)[C@H]3COC(=O)[C@H]23)OCO4)cc(OC)c1OC [PODOFILOX] |  |  | 5.74 µM | 
3 | O=C(/C=C/c1ccccc1)OC[C@@H](OC(=O)/C=C/c1ccccc1)c1ccc2ccccc2c1 | > 10 µM | > 10 µM | > 200 µM | 20
4 | CCCC(=O)O[C@H](CNC(=O)/C=C/c1ccccc1)c1ccc(OC)c(OC)c1 | > 10 µM | > 10 µM | 29.9 µM | < 2.98
5 | COc1ccc([C@@H](CNC(=O)/C=C/c2ccccc2)OC(=O)CCc2ccccc2)cc1OC | > 10 µM | > 10 µM | 36.9 µM | < 3.69
6 | COc1ccc([C@@H](CNC(=O)CCc2ccccc2)OC(=O)/C=C/c2ccccc2)cc1OC | > 10 µM | > 10 µM | 44.3 µM | < 4.43
7 | O=C(/C=C/c1ccccc1)OC[C@H](OC(=O)/C=C/c1ccccc1)c1ccc2ccccc2c1 | > 10 µM | 2.15 µM | 181 µM | < 18.1
8 | CCCC(=O)NC[C@@H](OC(=O)/C=C/c1ccccc1)c1ccc(OC)c(OC)c1 | > 10 µM | > 10 µM | 42.4 µM | < 4.24
9 | COc1ccc([C@@H](O)CNC(=O)/C=C/c2ccccc2)cc1 [AEGELINE] | > 10 µM | > 10 µM |  | 
